From ChEMBL document CHEMBL1821686, “Structure-based optimization of potent 4- and 6-azaindole-3-carboxamides as renin inhibitors” (Bioorg Med Chem Lett, 2011) come the findings set out here.

The target in series [1] is T1, Renin (Homo sapiens, UniProt P00797).
T1 sequence (P00797 whole entry): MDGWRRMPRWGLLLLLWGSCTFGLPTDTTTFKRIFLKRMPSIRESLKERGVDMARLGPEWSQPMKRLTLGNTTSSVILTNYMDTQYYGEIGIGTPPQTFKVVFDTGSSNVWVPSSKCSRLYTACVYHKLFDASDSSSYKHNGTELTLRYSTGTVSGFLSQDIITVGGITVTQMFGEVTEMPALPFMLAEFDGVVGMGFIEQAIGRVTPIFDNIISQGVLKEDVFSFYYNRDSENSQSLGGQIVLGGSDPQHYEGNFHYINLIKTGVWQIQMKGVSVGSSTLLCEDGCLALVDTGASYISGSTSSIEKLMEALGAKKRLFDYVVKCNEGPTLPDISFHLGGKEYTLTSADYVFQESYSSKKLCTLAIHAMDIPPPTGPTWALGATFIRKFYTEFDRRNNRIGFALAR

In series [2] the target is T1, Renin. Briefly: Inhibition of human recombinant renin using dabcyl-gamma-Abu-Ile-His-Pro-Phe-His-Leu-Val-Ile-His-Thr-EDANS as substrate preincubated for 30 mins after measured after 30 mins by fluorescence assay in presence of C57BL/6 mouse plasma.
For series [3], the target named is T1, Renin. Briefly: Inhibition of human recombinant renin using dabcyl-gamma-Abu-Ile-His-Pro-Phe-His-Leu-Val-Ile-His-Thr-EDANS as substrate preincubated for 30 mins after measured after 30 mins by fluorescence assay in presence of human plasma.
Series [4] in a line: Apparent permeability from apical to basolateral side of human Caco2 cells at 20 uM after 2 hrs. The conditions noted are these: Caco-2. (In general: Caco-2 monolayers are a common model of the intestinal barrier.)

pIC50: −log10 of the molar value.

Usually pIC50 stands for the negative decadic logarithm of the IC50, by convention in mol/L. For orientation: Papp A→B means the apparent permeability from the apical to the basolateral side of a cell layer.

In series [1], `Cc1ccc(C)c(Oc2c(C(=O)N3CCNCC3)c3ncccc3n2-c2ccccc2)c1` had a negative logarithm of the IC50 (pIC50) of 6.16.

With `O=C(c1c(Oc2ccccc2F)n(-c2ccccc2)c2cccnc12)N1CCNCC1`, in series [1], the negative-log IC50 (pIC50) was 6.29.

As for `O=C(c1c(Oc2cccc(F)c2F)n(-c2ccccc2)c2cccnc12)N1CCNCC1`, in series [1], the negative-log IC50 (pIC50) was 6.51.

Take `O=C(c1c(Oc2cc(F)ccc2F)n(-c2ccccc2)c2cccnc12)N1CCNCC1`: the negative-log IC50 (pIC50) in series [1] is 6.69.

As for `Cc1cccc(F)c1Oc1c(C(=O)N2CCNCC2)c2ncccc2n1-c1ccccc1`, the negative logarithm of the IC50 (pIC50) in series [1] was 7.13.

Consider `Cc1c(F)cccc1Oc1c(C(=O)N2CCNCC2)c2ncccc2n1-c1ccccc1`, for which the pIC50 in series [1] is 7.24.

In turn, `Cc1ccc(F)cc1Oc1c(C(=O)N2CCNCC2)c2ncccc2n1-c1ccccc1` showed a pIC50 in series [1] of 7.62.

As to `O=C(c1c(Oc2cc(F)ccc2Cl)n(-c2ccccc2)c2cccnc12)N1CCNCC1`, in series [1], the pIC50 was 7.26.

For the compound `Cc1cc(F)c(F)cc1Oc1c(C(=O)N2CCNCC2)c2ncccc2n1-c1ccccc1`, the pIC50 in series [1] is 6.49.

In series [1], `Cc1c(F)cc(F)cc1Oc1c(C(=O)N2CCNCC2)c2ncccc2n1-c1ccccc1` showed a negative-log IC50 (pIC50) of 6.97.

With `Cc1cccc(C)c1Oc1c(C(=O)N2CCNCC2)c2ncccc2n1-c1ccccc1`, the negative-log IC50 (pIC50) is 7.85 in series [1], 7.82 in series [2] and 7.52 in series [3]. Moreover, the Papp A→B at 2 h, 20 µM in series [4] was 0.28 ×10⁻⁶ cm/s.

With `Cc1ccc(F)c(C)c1Oc1c(C(=O)N2CCNCC2)c2ncccc2n1-c1ccccc1`, the pIC50 in series [1] was 8.89; in series [2], 7.44. For the same compound, the apparent permeability from apical to basolateral (Papp A→B) at 2 h, 20 µM in series [4] was found to be 4.3 ×10⁻⁶ cm/s.

As for `Cc1cccc(C)c1Sc1c(C(=O)N2CCNCC2)c2ncccc2n1-c1ccccc1`, the pIC50 in series [1] is 7.21.

As for `O=C(c1c(Cc2ccccc2)n(-c2ccccc2)c2cccnc12)N1CCNCC1`, the pIC50 in series [1] was 6.03.

In series [1], `O=C(c1c(Cc2cccc(F)c2F)n(-c2ccccc2)c2cccnc12)N1CCNCC1` gave a pIC50 of 5.84.

`Cc1cc(F)cc(C)c1Cc1c(C(=O)N2CCNCC2)c2ncccc2n1-c1ccccc1`: the negative-log IC50 (pIC50) in series [1] is 6.61.

Turning to `Cc1c(F)cccc1Cc1c(C(=O)N2CCNCC2)c2ncccc2n1-c1ccccc1`, the pIC50 in series [1] is 7.92.

In series [1], `Cc1cccc(C)c1Oc1c(C(=O)N2CCNCC2)c2ncccc2n1C1CCCCC1` had a negative-log IC50 (pIC50) of 8.40.

Regarding `Cc1cccc(C)c1Oc1c(C(=O)N2CCN[C@@H](C)C2)c2ncccc2n1C1CCCCC1`, in series [1], the negative logarithm of the IC50 (pIC50) was 7.10.

As to `Cc1cccc(C)c1Oc1c(C(=O)N2CCN[C@@H](C)C2)c2ncccc2n1-c1ccccc1`, the pIC50 in series [1] is 7.22.

The compound `Cc1cccc(C)c1Oc1c(C(=O)N2CCN[C@@H](CO)C2)c2ncccc2n1C1CCCCC1` had a negative-log IC50 (pIC50) in series [1] of 6.41.

On to `Cc1cccc(C)c1Oc1c(C(=O)N2CCN[C@@H](CO)C2)c2ncccc2n1-c1ccccc1`, for which the negative-log IC50 (pIC50) in series [1] is 6.84.

Consider `COC[C@H]1CN(C(=O)c2c(Oc3c(C)cccc3C)n(C3CCCCC3)c3cccnc23)CCN1`, for which the pIC50 in series [1] was 6.16.

Compound `CC[C@H]1CN(C(=O)c2c(Oc3c(C)cccc3C)n(-c3ccccc3)c3cccnc23)CCN1` had a pIC50 in series [1] of 6.34.

Compound `CCC[C@H]1CN(C(=O)c2c(Oc3c(C)cccc3C)n(-c3ccccc3)c3cccnc23)CCN1` gave a negative-log IC50 (pIC50) in series [1] of 5.93.

With `Cc1cccc(C)c1Oc1c(C(=O)N2CCN[C@@H](C(C)C)C2)c2ncccc2n1-c1ccccc1`, the pIC50 in series [1] was 5.57.

In series [1], `Cc1cccc(C)c1Oc1c(C(=O)N2CCNC[C@@H]2Cc2ccccc2)c2ncccc2n1-c1ccccc1` had a negative logarithm of the IC50 (pIC50) of 6.82.

Take `COc1ccc2c(n1)c(C(=O)N1CCNCC1)c(Oc1cc(F)ccc1C)n2-c1ccccc1`: the pIC50 in series [1] was 5.18.

For the compound `Cc1ccc(F)cc1Oc1c(C(=O)N2CCNCC2)c2nc(O)ccc2n1-c1ccccc1`, in series [1], the negative logarithm of the IC50 (pIC50) is < 5.30.

In series [1], `Cc1cnc2c(C(=O)N3CCNCC3)c(Oc3cc(F)ccc3C)n(-c3ccccc3)c2c1` showed a negative logarithm of the IC50 (pIC50) of 7.85.

On to `Cc1cccc(C)c1Oc1c(C(=O)N2CCNCC2)c2ncc(O)cc2n1-c1ccccc1`, for which the pIC50 in series [1] was 8.52.

In turn, `CCOc1cnc2c(C(=O)N3CCNCC3)c(Oc3c(C)cccc3C)n(-c3ccccc3)c2c1` gave a pIC50 in series [1] of 7.10.

In turn, `Cc1cnc2c(C(=O)N3CCNCC3)c(Cc3cccc(F)c3C)n(-c3ccccc3)c2c1` showed a negative logarithm of the IC50 (pIC50) in series [1] of 8.05.

Compound `COc1ccc2c(n1)c(C(=O)N1CCNCC1)c(Cc1cccc(F)c1C)n2-c1ccccc1` had a pIC50 in series [1] of 6.23.

For the compound `Cc1c(F)cccc1Cc1c(C(=O)N2CCNCC2)c2nc(O)ccc2n1-c1ccccc1`, in series [1], the negative logarithm of the IC50 (pIC50) is 5.80.

For the compound `Cc1ccccc1Oc1c(C(=O)N2CCNCC2)c2ccncc2n1-c1ccccc1`, the pIC50 in series [1] is 6.31.

The compound `Cc1ccc(F)cc1Oc1c(C(=O)N2CCNCC2)c2ccncc2n1-c1ccccc1` gave a negative-log IC50 (pIC50) in series [1] of 7.57.

On to `Cc1cccc(C)c1Oc1c(C(=O)N2CCNCC2)c2ccncc2n1-c1ccccc1`, for which, in series [1], the negative logarithm of the IC50 (pIC50) is 6.95.

For `Cc1ccc(F)c(C)c1Oc1c(C(=O)N2CCNCC2)c2ccncc2n1-c1ccccc1`, in series [1], the negative logarithm of the IC50 (pIC50) is 8.70.

`O=C(c1c(Cc2ccccc2)n(-c2ccccc2)c2cnccc12)N1CCNCC1` had a pIC50 in series [1] of 6.12.

As for `Cc1c(F)cccc1Cc1c(C(=O)N2CCNCC2)c2ccncc2n1-c1ccccc1`, the figures for the pIC50 in series [1], in series [2] and in series [3] were 7.85, 7.59 and 7.60, respectively. The apical-to-basolateral permeability (Papp A→B) at 2 h, 20 µM in series [4] came out at 1.27 ×10⁻⁶ cm/s.

Compound `CCc1nccc2c(C(=O)N3CCNCC3)c(Oc3cc(F)ccc3C)n(-c3ccccc3)c12` had a pIC50 in series [1] of 6.37.

Consider `Cc1ccc(F)cc1Oc1c(C(=O)N2CCNCC2)c2ccnc(Cc3ccccc3)c2n1-c1ccccc1`, for which the pIC50 in series [2] was 6.72; in series [3], 6.65. For the same compound, the Papp A→B at 2 h, 20 µM in series [4] worked out at 3.9 ×10⁻⁶ cm/s.

For the compound `Cc1cccc(C)c1Oc1c(C(=O)N2CCNCC2)c2ccnc(Cl)c2n1-c1ccccc1`, the negative logarithm of the IC50 (pIC50) in series [1] was 6.29.

Consider `Cc1c(F)cccc1Cc1nccc2c(C(=O)N3CCNCC3)c(Cc3cccc(F)c3C)n(-c3ccccc3)c12`, for which the pIC50 in series [1] was 8.30.

In series [1], `CCCCC1CN(C(=O)c2c(Oc3c(C)cccc3C)n(-c3ccccc3)c3cccnc23)CCN1` (racemic) had a pIC50 of 6.55.
